Test results: patent publication US20040192554A1, “Technique for effectively treating an agricultural product with a 1-substituted-cyclopropene” (priority 2003, published 2004)

Test system: Japanese pear (variety "Shinsei") fruit
Experiment: Quality deterioration of Japanese pear (Shinsei) fruit after storage, Example 1
Format: in vivo
Details: 1 ppm, after storage 25 degrees C 2 weeks
Procedure: Using a Japanese pear (variety “Shinsei”) fruit (6 fruits were used per group) as an agricultural product, the following experiment was preformed.
1) A fruit and 1-methylcyclopropene (concentration 1 ppm (parts per million) in a chamber) were placed into a sealed chamber (volume 30L, same in the following Examples), and contact-treated for 1 hour or 16 hours under a normal pressure.
2) A fruit was placed into a sealed chamber, and a pressure in the chamber was reduced to 12.5 kPa. Subsequently, 1-methylcyclopropene was placed therein to the concentration in the chamber of 1 ppm, and contact-treated for 30 minutes or 1 hour under the reduced pressure (12.5 kPa).
The fruit which had been subjected to treatment of above-mentioned 1) or 2) was stored at 25 degrees C for 2 weeks, and hardness of flesh and pH of a fruit juice which is an index for the content of an acid were measured. In addition, browning of flesh and fruit core, which is an index for an extent of storage disorder was assessed by naked eyes. Contact treatment of the above-mentioned 1) or 2) was performed on a day of harvesting a fruit. In addition, also regarding a fruit undergoing no treatment of 1) or 2) (non-treatment), similar storage was performed, and the above-mentioned index was measured and assessed. Further, regarding non-treated fruit, the above-mentioned index before storage was also measured and assessed. Different alpha characters in Table indicate that a significant difference was recognized at a risk rate of 5% (multiple range test of Newman-Keuls). In Tables showing the results of the following Examples 1 to 10, “1-MCP” denotes 1-methylcyclopropene.

[1] = Reduced pressure (12.5 kPa) 30 minutes
[2] = Reduced pressure (12.5 kPa) 1 hour

CC1=CC1 [1-MCP, 1-methylcyclopropene]
Hardness of flesh (Normal pressure 1 hour): 16.46a N | Presence or absence of browning (Normal pressure 1 hour): Presence | pH of fruit juice (Normal pressure 1 hour): 5.07 | Hardness of flesh (Normal pressure 16 hours): 21.17b N | Presence or absence of browning (Normal pressure 16 hours): Absence | pH of fruit juice (Normal pressure 16 hours): 5.07 | Hardness of flesh [1]: 20.58b N | Presence or absence of browning [1]: Slight | pH of fruit juice [1]: 5.10 | Hardness of flesh [2]: 20.97b N | Presence or absence of browning [2]: Absence | pH of fruit juice [2]: 4.97
